PubChem BioAssay (NCI)
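Protocol summary: plate cells (96-well), add compound at 5 concentrations, incubate 48 h, interpolate endpoints linearly. GI50 is the concentration that inhibits growth by half. TGI denotes the concentration required for complete inhibition of growth.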

How the values were obtained:
Assay in all cases: growth of human tumour cells (NCI), 48 h
[1] = tested on: K-562 leukemia
[2] = tested on: SNB-19 CNS
[3] = tested on: UO-31 renal
[4] = tested on: NCI-H226 lung
[5] = tested on: IGROV1 ovarian
[6] = tested on: SF-268 CNS
[7] = tested on: PC-3 prostate
[8] = tested on: HCT-116 colon
[9] = tested on: HOP-92 NSCLC
[10] = tested on: OVCAR-8 ovarian
[11] = tested on: M14 melanoma
[12] = tested on: OVCAR-5 ovarian
[13] = tested on: SF-295 CNS
[14] = tested on: OVCAR-3 ovarian
[15] = tested on: HOP-62 NSCLC
[16] = tested on: NCI-H460 lung
[17] = tested on: SNB-75 CNS
[18] = tested on: A549 NSCLC
[19] = tested on: 786-0 renal
[20] = tested on: MOLT-4 leukemia
[21] = tested on: MDA-MB-435
[22] = tested on: NCI-H23 lung
[23] = tested on: HCT-15 colon
[24] = tested on: RXF 393 renal
[25] = tested on: NCI/ADR-RES ovarian
[26] = tested on: MCF7 breast
[27] = tested on: RPMI-8226 leukemia
[28] = tested on: MDA-MB-231 breast
[29] = tested on: DU-145 prostate
[30] = tested on: SK-OV-3 ovarian
[31] = tested on: U251 CNS
[32] = tested on: SN12C renal
[33] = tested on: EKVX NSCLC
[34] = tested on: ACHN renal
[35] = tested on: CAKI-1 renal
[36] = tested on: CCRF-CEM leukemia
[37] = tested on: HCC-2998 colon
[38] = tested on: NCI-H522 lung
[39] = tested on: SK-MEL-5 melanoma
[40] = tested on: OVCAR-4 ovarian
[41] = tested on: SK-MEL-28 melanoma
[42] = tested on: HS 578T breast
[43] = tested on: HT29 colon
[44] = tested on: UACC-62 melanoma
[45] = tested on: TK-10 renal
[46] = tested on: LOX IMVI melanoma
[47] = tested on: MALME-3M melanoma
[48] = tested on: SK-MEL-2 melanoma
[49] = tested on: SW-620 colon
[50] = tested on: SF-539 CNS

Nc1nc(N)c2cc(S(=O)(=O)c3cccc(C(F)(F)F)c3)ccc2n1
GI50 [1]: 0.682 µM
TGI [1]: > 100 µM
GI50 [2]: 5.44 µM
TGI [2]: > 100 µM
GI50 [3]: 4.96 µM
TGI [3]: > 100 µM
GI50 [4]: 21.5 µM
TGI [4]: > 100 µM
GI50 [5]: 5.28 µM
TGI [5]: > 100 µM
GI50 [6]: 4.57 µM
TGI [6]: > 100 µM
GI50 [7]: 3.36 µM
TGI [7]: > 100 µM
GI50 [8]: 1.47 µM
TGI [8]: > 100 µM
GI50 [9]: 3.56 µM
TGI [9]: 38 µM
GI50 [10]: 4.22 µM
TGI [10]: > 100 µM
GI50 [11]: 2 µM
TGI [11]: > 100 µM
GI50 [12]: 6.46 µM
TGI [12]: > 100 µM
GI50 [13]: 2.57 µM
TGI [13]: 97.5 µM
GI50 [14]: 6 µM
TGI [14]: > 100 µM
GI50 [15]: 6.43 µM
TGI [15]: 34.2 µM
GI50 [16]: 0.575 µM
TGI [16]: > 100 µM
GI50 [17]: 12.9 µM
TGI [17]: 39.8 µM
GI50 [18]: 0.816 µM
TGI [18]: > 100 µM
GI50 [19]: 3.98 µM
TGI [19]: > 100 µM
GI50 [20]: 4.32 µM
TGI [20]: > 100 µM
GI50 [21]: 2.12 µM
TGI [21]: > 100 µM
GI50 [22]: 3.63 µM
TGI [22]: > 100 µM
GI50 [23]: 3.09 µM
TGI [23]: > 100 µM
GI50 [24]: 3.8 µM
TGI [24]: 57.8 µM
GI50 [25]: 7.79 µM
TGI [25]: > 100 µM
GI50 [26]: 5.7 µM
TGI [26]: > 100 µM
GI50 [27]: 5.21 µM
TGI [27]: > 100 µM
GI50 [28]: 9.75 µM
TGI [28]: > 100 µM
GI50 [29]: 6.35 µM
TGI [29]: > 100 µM
GI50 [30]: 14.8 µM
TGI [30]: > 100 µM
GI50 [31]: 3.52 µM
TGI [31]: > 100 µM
GI50 [32]: 6.34 µM
TGI [32]: > 100 µM
GI50 [33]: 3.32 µM
TGI [33]: > 100 µM
GI50 [34]: 4.43 µM
TGI [34]: > 100 µM
GI50 [35]: > 100 µM
TGI [35]: > 100 µM
GI50 [36]: 3.41 µM
TGI [36]: > 100 µM
GI50 [37]: 5.03 µM
TGI [37]: > 100 µM
GI50 [38]: 3.05 µM
TGI [38]: > 100 µM
GI50 [39]: 2.98 µM
TGI [39]: > 100 µM
GI50 [40]: 5.71 µM
TGI [40]: > 100 µM
GI50 [41]: 85.1 µM
TGI [41]: > 100 µM
GI50 [42]: 4.55 µM
TGI [42]: 49.7 µM
GI50 [43]: 2.42 µM
TGI [43]: > 100 µM
GI50 [44]: 3.41 µM
TGI [44]: > 100 µM
GI50 [45]: 7.78 µM
TGI [45]: > 100 µM
GI50 [46]: 1.53 µM
TGI [46]: > 100 µM
GI50 [47]: 5.74 µM
TGI [47]: > 100 µM
GI50 [48]: 11 µM
TGI [48]: 73.2 µM
GI50 [49]: 0.989 µM
TGI [49]: > 100 µM
GI50 [50]: 6.63 µM
TGI [50]: > 100 µM
